Measurements published in ChEMBL document CHEMBL5244209, “Antiplasmodial and antimalarial activities of quinolone derivatives: An overview” (Eur J Med Chem, 2018).
In brackets after ≈: the same amount, converted by molar mass.

Legend:
[1] = system: Plasmodium falciparum; experiment: Antimalarial activity against Antimalarial activity against chloroquine-sensitive Plasmodium falciparum FCR-3; assay type: functional, organism-based
[2] = system: Plasmodium falciparum; experiment: Antimalarial activity against blood stage chloroquine-sensitive Plasmodium falciparum 3D7 infected in erythrocytes assessed as reduction in parasite growth preincubated for 72 hrs followed by addition of [3H]Hypoxanthine and measured after 24 hrs by liquid scintillation counting method; assay type: functional, organism-based; conditions: 3D7, Erythrocyte
[3] = system: Plasmodium yoelii yoelii; experiment: Antimalarial activity against hepatic stage Plasmodium yoelii yoelii 265 BY for 48 hrs with media renew every 24 hrs; assay type: functional, organism-based
[4] = system: Plasmodium falciparum; experiment: Antiplasmodial activity against chloroquine-sensitive Plasmodium falciparum 3D7 infected in human erythrocyte incubated for 72 hrs by SYBR green I staining based fluorescence assay; assay type: functional, organism-based; conditions: 3D7, Erythrocyte
[5] = system: Plasmodium falciparum; experiment: Antimalarial activity against blood stage chloroquine-sensitive Plasmodium falciparum NF54-R infected in erythrocytes assessed as reduction in parasite growth preincubated for 72 hrs followed by addition of [3H]Hypoxanthine and measured after 24 hrs by liquid scintillation counting method; assay type: functional, organism-based; conditions: Erythrocyte
[6] = system: Plasmodium falciparum; experiment: Antiplasmodial activity against Plasmodium falciparum D6 infected in human Erythrocyte measured after 72 hrs by SYBR green fluorescence dye based microplate reader analysis; assay type: functional, organism-based
[7] = system: Plasmodium falciparum; experiment: Antiplasmodial activity against Plasmodium falciparum Dd2 infected in human Erythrocyte measured after 72 hrs by SYBR green fluorescence dye based microplate reader analysis; assay type: functional, organism-based
[8] = system: Plasmodium falciparum; experiment: Antiplasmodial activity against Plasmodium falciparum Tm90-C2B infected in human Erythrocyte measured after 72 hrs by SYBR green fluorescence dye based microplate reader analysis; assay type: functional, organism-based
[9] = system: Plasmodium falciparum; experiment: Antimalarial activity against chloroquine-sensitive Plasmodium falciparum FCC1 measured after 48 hrs; assay type: functional, organism-based; conditions: FCC1, 48 h
[10] = system: Plasmodium falciparum; experiment: Antimalarial activity against chloroquine-resistant Plasmodium falciparum VNS measured after 48 hrs; assay type: functional, organism-based
[11] = system: Plasmodium berghei; experiment: Antiplasmodial activity against liver stage Plasmodium berghei ANKA infected in human HepG2 cells measured after 44 hrs; assay type: functional, organism-based; conditions: HepG2, 44 h
[12] = system: Plasmodium falciparum; experiment: Antimalarial activity against chloroquine-sensitive Plasmodium falciparum 3D7; assay type: functional, organism-based
[13] = system: FM3A; experiment: Cytotoxicity against mouse FM3A cells; assay type: functional, cell-based
[14] = system: Plasmodium falciparum; experiment: Antiplasmodial activity against asynchronous Plasmodium falciparum CS2; assay type: functional, organism-based
[15] = system: Plasmodium falciparum; experiment: Antiplasmodial activity against synchronized Plasmodium falciparum 3D7; assay type: functional, organism-based
[16] = system: Plasmodium falciparum; experiment: Antiplasmodial activity against synchronized Plasmodium falciparum K1; assay type: functional, organism-based
[17] = system: Plasmodium falciparum; experiment: Antiplasmodial activity against asynchronous Plasmodium falciparum 3D7; assay type: functional, organism-based
[18] = system: Plasmodium falciparum; experiment: Antiplasmodial activity against asynchronous Plasmodium falciparum K1; assay type: functional, organism-based

Q: With `Cn1cc(C(=O)N/N=C/c2cccnc2)c(=O)c2cc(F)ccc21` as the compound, how does the IC50 [1] read?
A: Its IC50 is over 100000 nM.

Q: With `C[C@H]1COc2c(N3CCN(C)CC3)c(F)cc3c(=O)c(C(=O)O)cn1c23.C[C@H]1COc2c(N3CCN(C)CC3)c(F)cc3c(=O)c(C(=O)O)cn1c23.O` [LEVOFLOXACIN] as the compound, how does the IC50 [2] read?
A: The IC50 was 112 µg/mL.

Q: And the IC50 [3]?
A: The IC50 was over 100 µg/mL.

Q: What about the IC50 [4] of the same compound?
A: Its IC50 is over 20000 nM.

Q: And the IC50 [5]?
A: The IC50 was 40.3 µg/mL.

Q: How did the IC50 [2] turn out when `CCn1cc(C(=O)O)c(=O)c2cnc(N3CCCC3)nc21` [PIROMIDIC ACID] was run?
A: The IC50 was 41.4 µg/mL (≈ 144 µM).

Q: And the IC50 [3]?
A: Its IC50 is 21.6 µg/mL (≈ 74.9 µM).

Q: And the IC50 [5]?
A: Its IC50 is 14.4 µg/mL (≈ 49.9 µM).

Q: For `CCCCCCCc1c(C)[nH]c2cc(F)cc(F)c2c1=O`, which IC50 [6] is on record?
A: The IC50 was 0.1 nM.

Q: What about the IC50 [7] of the same compound?
A: The IC50 was 1 nM.

Q: And the IC50 [8]?
A: The IC50 was 81 nM.

Q: Which IC50 [9] does the source give for `CCn1cc(C(=O)O)c(=O)c2cc(F)c(N3CCNCC3)nc21` [ENOXACIN] here?
A: The IC50 was 800000 nM.

Q: And the IC50 [2]?
A: The IC50 was 38.8 µg/mL (≈ 121 µM).

Q: What about the IC50 [10] of the same compound?
A: Its IC50 is 990000 nM.

Q: And the IC50 [3]?
A: The IC50 was over 100 µg/mL.

Q: What about the IC50 [5] of the same compound?
A: Its IC50 is 1.4 µg/mL (≈ 4.37 µM).

Q: How did the IC50 [2] turn out when `CCn1nc(C(=O)O)c(=O)c2cc3c(cc21)OCO3` [CINOXACIN] was run?
A: Its IC50 is 118 µg/mL (≈ 451 µM).

Q: What about the IC50 [3] of the same compound?
A: Its IC50 is 36.3 µg/mL (≈ 138 µM).

Q: And the IC50 [5]?
A: Its IC50 is 28.5 µg/mL (≈ 109 µM).

Q: How did the IC50 [4] turn out when `C=CC1CC2CCC1CC2[C@H](OC(=O)CNC(=O)C1=CN2C3C(=C(N4CCN(C)CC4)C(F)=CC3C1=O)OC[C@@H]2C)c1cccc2ccc(OC)cc12` (some centres undefined) was run?
A: Its IC50 is 12 nM.

Q: `Cn1cc(C(=O)N/N=C/c2ccccn2)c(=O)c2cc(C(F)(F)F)ccc21` was tested. Which IC50 [1] did it give?
A: The IC50 was 6200 nM.

Q: For `C=CC1CC2CCC1CC2[C@H](OC(=O)[C@@H](NC(=O)C1=CN(C2CC2)C2C=C(N3CCN(CC)CC3)C(F)=CC2C1=O)C(C)CC)c1cccc2ccc(OC)cc12` (some centres undefined), which IC50 [4] is on record?
A: Its IC50 is 207 nM.

Q: Which IC50 [9] does the source give for `CNn1cc(C(=O)O)c(=O)c2cc(F)c(N3CCN(C)CC3)cc21` [AMIFLOXACIN] here?
A: The IC50 was 550000 nM.

Q: And the IC50 [10]?
A: Its IC50 is 870000 nM.

Q: With `COc1cc2[nH]c(C)c(-c3ccc(C(F)(F)F)cc3)c(=O)c2cc1Cl` as the compound, how does the IC50 [11] read?
A: The IC50 was 3.07 nM.

Q: For `COc1c(N2C[C@@H]3CCCN[C@@H]3C2)c(F)cc2c(=O)c(C(=O)O)cn(C3CC3)c12` [MOXIFLOXACIN], which IC50 [2] is on record?
A: Its IC50 is 44.8 µg/mL (≈ 112 µM).

Q: And the IC50 [3]?
A: Its IC50 is over 100 µg/mL.

Q: And the IC50 [5]?
A: Its IC50 is 18 µg/mL (≈ 44.8 µM).

Q: For `CCCCc1c(C)[nH]c2cc(OC)ccc2c1=O`, which IC50 [6] is on record?
A: The IC50 was 29 nM.

Q: What about the IC50 [7] of the same compound?
A: The IC50 was 29 nM.

Q: And the IC50 [8]?
A: Its IC50 is 92 nM.

Q: For `CCN(CC)CCCC(C)Nc1ccnc2cc(Cl)ccc12` (centres undefined) [CHLOROQUINE], which IC50 [11] is on record?
A: The IC50 was over 1.2 nM.

Q: Which IC50 [12] does the source give for `CCOC(=O)/C(=C\n1cc(C(=O)OCC)c(=O)c2cc(F)ccc21)c1ccccn1` here?
A: The IC50 was 21000 nM.

Q: And the IC50 [13]?
A: Its IC50 is over 100000 nM.

Q: Which results are given for `CCn1cc(C(=O)O)c(=O)c2ccc(-c3ccncc3)cc21` [ROSOXACIN]?
A: IC50 [2]: 87.9 µg/mL (≈ 299 µM); IC50 [5]: 10.6 µg/mL (≈ 36 µM)

Q: With `C=CC1CC2CCC1CC2[C@H](OC(=O)[C@H](Cc1ccccc1)NC(=O)C1=CN2C3C(=C(N4CCN(C)CC4)C(F)=CC3C1=O)OC[C@@H]2C)c1cccc2ccc(OC)cc12` (some centres undefined) as the compound, how does the IC50 [4] read?
A: Its IC50 is 48 nM.

Q: Which IC50 [1] does the source give for `Cn1cc(C(=O)N/N=C/c2ccncc2)c(=O)c2cc(F)ccc21` here?
A: The IC50 was over 100000 nM.

Q: With `Cn1cc(C(=O)N/N=C/c2ccncc2)c(=O)c2cc(C(F)(F)F)ccc21` as the compound, how does the IC50 [1] read?
A: The IC50 was over 100000 nM.

Q: With `CCOC(=O)c1cn(/C=C(\C(=O)O)c2cccnc2)c2ccc(F)cc2c1=O` as the compound, how does the IC50 [12] read?
A: The IC50 was 29000 nM.

Q: And the IC50 [13]?
A: The IC50 was over 100000 nM.

Q: What does the source list for `CN1CCN(c2c(F)cc3c(=O)c(C(=O)O)cn(CCF)c3c2F)CC1` [FLEROXACIN]?
A: IC50 [2]: 34.6 µg/mL (≈ 93.7 µM); IC50 [3]: > 100 µg/mL; IC50 [5]: 12.9 µg/mL (≈ 34.9 µM)

Q: For `C=CC1CC2CCC1CC2[C@H](OC(=O)CNC(=O)C1=CN(CC)C2C=C(C)C=CC2C1=O)c1cccc2ccc(OC)cc12` (some centres undefined), which IC50 [4] is on record?
A: The IC50 was 46 nM.

Q: How did the IC50 [2] turn out when `N[C@@H]1[C@H]2CN(c3nc4c(cc3F)c(=O)c(C(=O)O)cn4-c3ccc(F)cc3F)C[C@@H]12` [TROVAFLOXACIN] was run?
A: Its IC50 is 9.6 µg/mL (≈ 23.1 µM).

Q: What about the IC50 [14] of the same compound?
A: The IC50 was 34000 nM.

Q: And the IC50 [15]?
A: The IC50 was 34000 nM.

Q: What about the IC50 [5] of the same compound?
A: Its IC50 is 9.2 µg/mL (≈ 22.1 µM).

Q: What about the IC50 [16] of the same compound?
A: The IC50 was 18000 nM.

Q: And the IC50 [17]?
A: Its IC50 is 36000 nM.

Q: And the IC50 [18]?
A: The IC50 was 33000 nM.

Q: How did the IC50 [6] turn out when `COc1ccc2c(=O)c(CCCCCCCCCCC(F)(F)F)c(C)[nH]c2c1` was run?
A: The IC50 was 1 nM.

Q: And the IC50 [7]?
A: Its IC50 is 1 nM.

Q: What about the IC50 [8] of the same compound?
A: The IC50 was 5 nM.

Q: Which IC50 [4] does the source give for `C=CC1CC2CCC1CC2[C@H](OC(=O)[C@H](C)NC(=O)C1=CN(CC)C2C=C3OCOC3=CC2C1=O)c1cccc2ccc(OC)cc12` (some centres undefined) here?
A: Its IC50 is 29 nM.

Q: For `O=C1C(O)=C([C@H]2CC[C@H](c3ccc(Cl)cc3)CC2)C(=O)c2ccccc21` [ATOVAQUONE], which IC50 [6] is on record?
A: The IC50 was 0.3 nM.

Q: What about the IC50 [7] of the same compound?
A: The IC50 was 0.5 nM.

Q: And the IC50 [8]?
A: Its IC50 is 5090 nM.

Q: What does the source list for `CCCCCCCc1c(C)[nH]c2cc(Cl)ccc2c1=O`?
A: IC50 [6]: 6 nM; IC50 [7]: 2 nM; IC50 [8]: 64 nM

Q: For `Cn1cc(C(=O)N/N=C/c2ccccn2)c(=O)c2cc(F)ccc21`, which IC50 [1] is on record?
A: The IC50 was 3300 nM.

Q: How did the IC50 [2] turn out when `CCn1cc(C(=O)O)c(=O)c2ccc(C)nc21` [NALIDIXIC ACID] was run?
A: The IC50 was 117 µg/mL (≈ 502 µM).

Q: And the IC50 [3]?
A: Its IC50 is over 100 µg/mL.

Q: And the IC50 [4]?
A: Its IC50 is over 20000 nM.

Q: And the IC50 [5]?
A: Its IC50 is 59.1 µg/mL (≈ 254 µM).

Q: `CCOC(=O)/C(=C\n1cc(C(=O)O)c(=O)c2cc(F)ccc21)c1ccccn1` was tested. Which IC50 [12] did it give?
A: Its IC50 is 21000 nM.

Q: What about the IC50 [13] of the same compound?
A: Its IC50 is over 100000 nM.
